From patent publication US10689394B2, “Thieno[2,3-b]pyridine derivative, quinoline derivative, and use thereof” (The University of Tokyo, priority 2016, dated 2020)

Each compound was assayed against T1, binding between ALS-related mutant SOD1 (Flag-SOD1 G93A) and Derlin-1 (Derlin-1-HA) (Homo sapiens, UniProt P00441+Q9BUN8, G94A) (assay: Cell-based co-immunoprecipitation assay of mutant SOD1 (G93A)-Derlin-1 binding). Conditions: 0.625 μM, 1.25 μM, 2.5 μM and 5 μM added to HEK293A cell culture; FIG. 1.
T1 construct: expressed in transfected cells; host or cells: HEK293A
Design: key to Activity value (score): a compound exhibiting no inhibitory activity is set at 0; a compound exhibiting inhibitory activity is set at 1; a compound exhibiting significant inhibitory activity is set at 2; a compound having higher inhibitory activity than the compound of Example 1 is set at 3
Method: As cells, human embryonic kidney-derived, Human Embryonic Kidney 293A (HEK293A) cells were used. The cells were cultured in High Glucose Dulbecco's modified Eagle's medium (DMEM: 4.5 mg/ml glucose, Sigma) supplemented with complement-inactivated 10% fetal bovine serum (FBS, Vitromex) and 100 units/mL Penicillin G (Meiji), which was placed in an incubator set at conditions of 37° C. and 5% CO2.
Transfection into the HEK293A cells was carried out using PEI-Max (Polyscience) at a ratio of 3 μL of PEI-Max to 1 μg of plasmid. DMEM was mixed with PEI-Max, and the mixture was then left at rest for 5 minutes. Thereafter, the reaction mixture was added to the plasmid DNA dissolved in DMEM, and the thus obtained mixture was further left at rest for 15 minutes. After seeding, the culture was carried out for 12 to 24 hours, and the resultant was then added to a culture medium of cells, in which the medium had been exchanged with DMEM supplemented only with 10% FBS.
pcDNA3.0-Derlin-1-HA, pcDNA3.0-Flag-SOD1 G93A, and 123 types of other mutants.
In the lysis of HEK293A cells for use in a co-immunoprecipitation experiment, an IP lysis buffer (20 mM Tris-HCl (pH 7.5), 150 mM NaCl, 10 mM EDTA (pH 8.0), 1% Triton-X 100, 5 μg/mL leupeptin, and 1 mM phenylmethylsulfonyl fluoride) was used.
After the transfection on a 24-well plate, the cells were cultured for 12 hours or 24 hours, and the obtained cell culture was exchanged with 200 μL of medium. Thereafter, 1% DMSO or various types of compounds having each different concentration were added into the culture. Thirty-six hours or twenty-four hours later, the cells were incubated in the IP lysis buffer (300 μL/well) at 4° C. for 25 minutes, so that the cells were lysed. The cell lysate was centrifuged at 4° C. at 15000 rpm for 10 minutes, and a supernatant was then recovered. To this supernatant, Anti-Flag M2 affinity gel was added in a liquid amount of 20 μL, and they were allowed to react with each other by subjecting the obtained mixture to inversion mixing at 4° C. for 25 minutes. After completion of the reaction, a supernatant was removed, and the residue was washed twice with High salt wash buffer (1% Triton X 100, 500 mM NaCl, 20 mM Tris-HCl (pH 7.5), and 5 mM EGTA), and was then washed once with Low salt wash buffer (150 mM NaCl, 20 mM Tris-HCl (pH 7.5), and 5 mM EGTA). Finally, 50 μL of a 2×SDS sample buffer was added to the resultant, and the obtained mixture was then boiled at 98° C. for 3 minutes to obtain an SDS-PAGE sample. Regarding the lysate, a 2×SDS sample buffer was added in an amount equal to the supernatant, and the obtained mixture was then boiled at 98° C. for 3 minutes to obtain an SDS-PAGE sample.
After completion of SDS-PAGE, a protein was transferred from the gel into a polyvinylidene difluoride membrane (PVDF) ([…], Pall), and was then blocked with TBS-T (150 mM NaCl, 50 mM Tris-HCl (pH 8.0), and 0.05% Tween 20) supplemented with 5% skimmed milk at room temperature for 2 hours or more. Thereafter, a primary antibody diluted with TBS-T supplemented with 5% bovine serum albumin and 0.1% NaN3 was allowed to bind to each molecule on the PVDF membrane at 4° C. for 12 hours or more. After completion of the reaction, a secondary antibody (HRP-linked 2nd antibody) diluted with TBS-T supplemented with 5% skimmed milk was allowed to bind to the primary antibody at room temperature for 1 hour. Thereafter, the resultant was washed with TBS-T for 15 minutes, 3 or more times, and detection was then carried out using an enhanced chemiluminescence (ECL) system.
With regard to the compounds of the present invention (Example Compound 1 to Example Compound 47), whether or not the present compound can inhibit the binding between ALS-related mutant SOD1 and Derlin-1 in a cell by being added into a cell culture solution was examined according to a co-immunoprecipitation experiment. […]

T1 sequence (P00441 whole entry G94A, species assumed): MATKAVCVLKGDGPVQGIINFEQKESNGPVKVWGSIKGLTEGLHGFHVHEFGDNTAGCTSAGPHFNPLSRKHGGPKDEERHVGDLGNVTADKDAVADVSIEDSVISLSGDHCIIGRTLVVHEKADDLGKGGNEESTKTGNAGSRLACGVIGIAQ
T1 sequence (Q9BUN8 whole entry, species assumed, stated change not applied): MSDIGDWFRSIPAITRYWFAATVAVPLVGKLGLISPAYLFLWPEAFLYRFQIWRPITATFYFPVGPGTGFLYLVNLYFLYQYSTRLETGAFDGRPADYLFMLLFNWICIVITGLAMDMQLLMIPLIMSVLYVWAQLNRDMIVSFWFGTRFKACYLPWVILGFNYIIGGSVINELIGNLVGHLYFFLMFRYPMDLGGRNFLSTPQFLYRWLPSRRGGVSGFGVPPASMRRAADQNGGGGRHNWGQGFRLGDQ

| SMILES | binding between mutant SOD1 and Derlin-1 (co-precipitated Derlin-1, IB:HA band) |
| --- | --- |
| Nc1c(C(=O)Nc2ccncc2)sc2nc(-c3cccnc3)ccc12 [Example 4, 3-amino-N-(4-pyridinyl)-6-(3-pyridinyl)thieno[2,3-b]pyridine-2-carboxamide] | the binding between mutant SOD1 and Derlin-1 was inhibited |

Same assay, conditions: assay concentration 2.6 μM; HEK293A cells overexpressing Flag-SOD1 G93A and Derlin-1-HA

| Activity value (score) | SMILES |
| --- | --- |
| 1 | Nc1c(C(=O)Nc2ccncc2)sc2nc(-c3ccccn3)ccc12 [Example 6, 3-amino-N-(4-pyridinyl)-6-(2-pyridinyl)thieno[2,3-b]pyridine-2-carboxamide] |
| 1 | Nc1c(C(=O)Nc2ccc(-c3cc(C(F)(F)F)cc(C(F)(F)F)c3)cc2)sc2nc(-c3ccncc3)ccc12 [Example 7] |

Same assay, conditions: assay concentration 5 μM; HEK293A cells overexpressing Flag-SOD1 G93A and Derlin-1-HA

| Activity value (score) | SMILES |
| --- | --- |
| 2 | Nc1c(C(=O)Nc2ccncc2)sc2nc(-c3cccnc3)ccc12 [Example 4, 3-amino-N-(4-pyridinyl)-6-(3-pyridinyl)thieno[2,3-b]pyridine-2-carboxamide] |
| 1 | C=CCN(C(=O)c1sc2nc(-c3ccncc3)ccc2c1N)c1cc(F)ccc1F [Example 8, N-allyl-3-amino-N-(2,5-difluorophenyl)-6-(4-pyridinyl)thieno[2,3-b]pyridine-2-carboxamide] |
| 1 | CC#CCN(C(=O)c1sc2nc(-c3cccnc3)ccc2c1N)c1ccccc1 [Example 9, 3-amino-N-(2-butynyl)-N-phenyl-6-(3-pyridinyl)thieno[2,3-b]pyridine-2-carboxamide] |

Same assay, conditions: assay concentration 10 μM; HEK293A cells overexpressing Flag-SOD1 G93A and Derlin-1-HA

| Activity value (score) | SMILES |
| --- | --- |
| 2 | C/C=C/CN(C(=O)c1sc2nc(-c3cccnc3)ccc2c1N)c1ccccc1 [Example 5, 3-amino-N-(trans-2-butenyl)-N-phenyl-6-(3-pyridinyl)thieno[2,3-b]pyridine-2-carboxamide] |

Same assay, conditions: assay concentration 20 μM; HEK293A cells overexpressing Flag-SOD1 G93A and Derlin-1-HA

| SMILES | Activity value (score) |
| --- | --- |
| C#CCCCOCC=CCN(C(=O)c1sc2nc(-c3cccnc3)ccc2c1N)c1ccccc1 (stereo in doubt) [Example 38, 3-amino-N-((E)-4-(pent-4-ynyloxy)but-2-enyl)-N-phenyl-6-(3-pyridinyl)thieno[2,3-b]pyridine-2-carboxamide] | 2 |
| Nc1c(C(=O)N2CCCc3ccccc32)sc2nc(-c3cccnc3)ccc12 [Example 3, (3-Amino-6-(3-pyridinyl)thieno[2,3-b]2-pyridinyl)(3,4-dihydro-1(2H)-quinolyl)methanone] | 2 |
| CCCN(C(=O)c1sc2nc(-c3cccnc3)ccc2c1N)c1ccc(F)c(F)c1F [Example 11, N-n-propyl-3-amino-N-(2,3,4-trifluorophenyl)-6-(3-pyridinyl)thieno[2,3-b]pyridine-2-carboxamide] | 2 |
| Nc1c(C(=O)N2CCCCc3ccccc32)sc2nc(-c3cccnc3)ccc12 [Example 14, [3-amino-6-(3-pyridinyl)thieno[2,3-b]2-pyridinyl](2,3,4,5-tetrahydro-1H-benzo[b]azepin-1-yl)methanone] | 2 |
| Nc1c(C(=O)Nc2cccc3ccccc23)sc2nc(-c3cccnc3)ccc12 [Example 24] | 1 |
| Cc1cccc(C)c1NC(=O)c1sc2nc(-c3cccnc3)ccc2c1N [Example 25, 3-amino-N-(2,6-dimethylphenyl)-6-(3-pyridinyl)thieno[2,3-b]pyridine-2-carboxamide] | 1 |
| Nc1c(C(=O)Nc2ccc(OCc3ccccc3)cc2)sc2nc(-c3cccnc3)ccc12 [Example 26, 3-amino-N-[4-(benzyloxy)phenyl]-6-(3-pyridinyl)thieno[2,3-b]pyridine-2-carboxamide] | 1 |
| Nc1c(C(=O)Nc2ccc(I)cc2)sc2nc(-c3cccnc3)ccc12 [Example 27, 3-amino-N-(4-iodophenyl)-6-(3-pyridinyl)thieno[2,3-b]pyridine-2-carboxamide] | 1 |

The remaining lines, values ahead:

| Activity value (score) | SMILES |
| --- | --- |
| 2 | C#CCN(C(=O)c1sc2nc(-c3cccnc3)ccc2c1N)c1ccccc1 [Example 2, N-propargyl-3-amino-N-phenyl-6-(3-pyridinyl)thieno[2,3-b]pyridine-2-carboxamide] |
| 2 | CCCN(C(=O)c1sc2nc(-c3cccnc3)ccc2c1N)c1ccccc1 [Example 10, N-n-propyl-3-amino-N-phenyl-6-(3-pyridinyl)thieno[2,3-b]pyridine-2-carboxamide] |
| 2 | C=CCN(C(=O)c1sc2nc(-c3cccnc3)ccc2c1N)c1ccc(I)cc1 [Example 12, N-allyl-3-amino-N-(4-iodophenyl)-6-(3-pyridinyl)thieno[2,3-b]pyridine-2-carboxamide] |
| 2 | CC(C)=CCN(C(=O)c1sc2nc(-c3cccnc3)ccc2c1N)c1ccccc1 [Example 13, N-(3-methyl-2-butenyl)-3-amino-N-phenyl-6-(3-pyridinyl)thieno[2,3-b]pyridine-2-carboxamide] |
| 2 | C=CCN(C(=O)c1sc2nc(-c3cccnc3)ccc2c1N)c1ccc(F)cc1F [Example 15, N-allyl-3-amino-N-(2,4-difluorophenyl)-6-(3-pyridinyl)thieno[2,3-b]pyridine-2-carboxamide] |
| 2 | C=CCN(C(=O)c1sc2nc(-c3cccnc3)ccc2c1N)c1cccc(F)c1F [Example 16, N-allyl-3-amino-N-(2,3-difluorophenyl)-6-(3-pyridinyl)thieno[2,3-b]pyridine-2-carboxamide] |
| 2 | C=CCN(C(=O)c1sc2nc(-c3cccnc3)ccc2c1N)c1cc(F)ccc1F [Example 17, N-allyl-3-amino-N-(2,5-difluorophenyl)-6-(3-pyridinyl)thieno[2,3-b]pyridine-2-carboxamide] |
| 2 | C=CCN(C(=O)c1sc2nc(-c3cccnc3)ccc2c1N)c1cc(F)ccc1C [Example 18, N-allyl-3-amino-N-(5-fluoro-2-methylphenyl)-6-(3-pyridinyl)thieno[2,3-b]pyridine-2-carboxamide] |
| 2 | C=CCN(C(=O)c1sc2nc(-c3ccncc3)ccc2c1N)c1ccc(F)c(F)c1 [Example 19, N-allyl-3-amino-N-(3,4-difluorophenyl)-6-(4-pyridinyl)thieno[2,3-b]pyridine-2-carboxamide] |
| 2 | C=CCN(C(=O)c1sc2nc(-c3cccnc3)ccc2c1N)c1cc(F)cc(F)c1 [Example 20, N-allyl-3-amino-N-(3,5-difluorophenyl)-6-(3-pyridinyl)thieno[2,3-b]pyridine-2-carboxamide] |
| 2 | C=CCN(C(=O)c1sc2nc(-c3cccnc3)ccc2c1N)c1cccc(S(F)(F)(F)(F)F)c1 [Example 21, N-allyl-3-amino-N-(3-(pentafluoro-λ^6-sulfanyl)phenyl)-6-(3-pyridinyl)thieno[2,3-b]pyridine-2-carboxamide] |
| 2 | C=CCN(C(=O)c1sc2nc(-c3ccncc3)ccc2c1N)c1cc(F)cc(F)c1 [Example 22, N-allyl-3-amino-N-(3,5-difluorophenyl)-6-(4-pyridinyl)thieno[2,3-b]pyridine-2-carboxamide] |
| 2 | C=CCN(C(=O)c1sc2nc(-c3ccncc3)ccc2c1N)c1cccc(S(F)(F)(F)(F)F)c1 [Example 23, N-allyl-3-amino-N-(3-(pentafluoro-λ^6-sulfanyl)phenyl)-6-(4-pyridinyl)thieno[2,3-b]pyridine-2-carboxamide] |
